Assay results taken from PubChem BioAssay (NCI).
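A five-concentration, 48-hour dose response in 96-well plates underlies each endpoint, interpolated linearly between surrounding concentrations. TGI is the concentration that stops growth completely.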

Legend:
Test in all cases: DTP human tumour cell line panel, 48 h
[1] = test system: 786-0 renal
[2] = test system: A498 renal
[3] = test system: A549 NSCLC
[4] = test system: ACHN renal
[5] = test system: BT-549 breast
[6] = test system: CAKI-1 renal
[7] = test system: CCRF-CEM leukemia
[8] = test system: COLO 205 colon
[9] = test system: DU-145 prostate
[10] = test system: EKVX NSCLC
[11] = test system: HCC-2998 colon
[12] = test system: HCT-116 colon
[13] = test system: HCT-15 colon
[14] = test system: HL-60(TB) leukemia
[15] = test system: HOP-62 NSCLC
[16] = test system: HS 578T breast
[17] = test system: HT29 colon
[18] = test system: IGROV1 ovarian
[19] = test system: K-562 leukemia
[20] = test system: KM12 colon
[21] = test system: LOX IMVI melanoma
[22] = test system: M14 melanoma
[23] = test system: MALME-3M melanoma
[24] = test system: MCF7 breast
[25] = test system: MDA-MB-231 breast
[26] = test system: MDA-MB-435
[27] = test system: MDA-N
[28] = test system: MOLT-4 leukemia
[29] = test system: NCI-H226 lung
[30] = test system: NCI-H23 lung
[31] = test system: NCI-H460 lung
[32] = test system: NCI-H522 lung
[33] = test system: NCI/ADR-RES ovarian
[34] = test system: OVCAR-3 ovarian
[35] = test system: OVCAR-4 ovarian
[36] = test system: OVCAR-5 ovarian
[37] = test system: OVCAR-8 ovarian
[38] = test system: PC-3 prostate
[39] = test system: RPMI-8226 leukemia
[40] = test system: RXF 393 renal
[41] = test system: SF-268 CNS
[42] = test system: SF-295 CNS
[43] = test system: SF-539 CNS
[44] = test system: SK-MEL-2 melanoma
[45] = test system: SK-MEL-28 melanoma
[46] = test system: SK-MEL-5 melanoma
[47] = test system: SK-OV-3 ovarian
[48] = test system: SN12C renal
[49] = test system: SNB-19 CNS
[50] = test system: SR leukemia
[51] = test system: SW-620 colon
[52] = test system: T-47D breast
[53] = test system: TK-10 renal
[54] = test system: U251 CNS
[55] = test system: UACC-257 melanoma
[56] = test system: UACC-62 melanoma
[57] = test system: SNB-75 CNS
[58] = test system: UO-31 renal
[59] = test system: HOP-92 NSCLC

Structure (SMILES): CC(C)=CC(=O)O[C@@H]1CC(C)(C)CC2C3=CCC4[C@]56CC[C@](O)(OC5)C(C)(C)C6CC[C@@]4(C)C3(C)CC[C@]21C(=O)O (some centres undefined)
- TGI [1]: > 100 µM
- TGI [2]: > 100 µM
- TGI [3]: > 100 µM
- TGI [4]: 82.8 µM
- TGI [5]: > 100 µM
- TGI [6]: > 100 µM
- TGI [7]: > 100 µM
- TGI [8]: 50.4 µM
- TGI [9]: > 100 µM
- TGI [10]: > 100 µM
- TGI [11]: > 100 µM
- TGI [12]: > 100 µM
- TGI [13]: > 100 µM
- TGI [14]: > 100 µM
- TGI [15]: > 100 µM
- TGI [16]: > 100 µM
- TGI [17]: > 100 µM
- TGI [18]: > 100 µM
- TGI [19]: > 100 µM
- TGI [20]: > 100 µM
- TGI [21]: 44.4 µM
- TGI [22]: > 100 µM
- TGI [23]: > 100 µM
- TGI [24]: > 100 µM
- TGI [25]: > 100 µM
- TGI [26]: > 100 µM
- TGI [27]: > 100 µM
- TGI [28]: > 100 µM
- TGI [29]: > 100 µM
- TGI [30]: 89.4 µM
- TGI [31]: > 100 µM
- TGI [32]: > 100 µM
- TGI [33]: > 100 µM
- TGI [34]: > 100 µM
- TGI [35]: > 100 µM
- TGI [36]: > 100 µM
- TGI [37]: > 100 µM
- TGI [38]: > 100 µM
- TGI [39]: > 100 µM
- TGI [40]: > 100 µM
- TGI [41]: > 100 µM
- TGI [42]: > 100 µM
- TGI [43]: > 100 µM
- TGI [44]: > 100 µM
- TGI [45]: > 100 µM
- TGI [46]: > 100 µM
- TGI [47]: > 100 µM
- TGI [48]: > 100 µM
- TGI [49]: > 100 µM
- TGI [50]: > 100 µM
- TGI [51]: > 100 µM
- TGI [52]: > 100 µM
- TGI [53]: > 100 µM
- TGI [54]: > 100 µM
- TGI [55]: > 100 µM
- TGI [56]: > 100 µM

Structure (SMILES): O=C1CCC2(CC1)Cc1ccccc1C2O (centres undefined)
- TGI [1]: > 100 µM
- TGI [3]: > 100 µM
- TGI [4]: > 100 µM
- TGI [5]: > 100 µM
- TGI [6]: > 100 µM
- TGI [7]: > 100 µM
- TGI [8]: > 100 µM
- TGI [9]: > 100 µM
- TGI [10]: > 100 µM
- TGI [11]: > 100 µM
- TGI [12]: > 100 µM
- TGI [13]: > 100 µM
- TGI [14]: > 100 µM
- TGI [15]: > 100 µM
- TGI [16]: > 100 µM
- TGI [17]: > 100 µM
- TGI [18]: > 100 µM
- TGI [19]: > 100 µM
- TGI [20]: > 100 µM
- TGI [21]: > 100 µM
- TGI [22]: > 100 µM
- TGI [23]: > 100 µM
- TGI [24]: > 100 µM
- TGI [25]: > 100 µM
- TGI [27]: > 100 µM
- TGI [28]: > 100 µM
- TGI [29]: > 100 µM
- TGI [30]: > 100 µM
- TGI [31]: > 100 µM
- TGI [32]: > 100 µM
- TGI [33]: > 100 µM
- TGI [35]: > 100 µM
- TGI [36]: > 100 µM
- TGI [37]: > 100 µM
- TGI [38]: > 100 µM
- TGI [41]: > 100 µM
- TGI [42]: > 100 µM
- TGI [43]: > 100 µM
- TGI [44]: > 100 µM
- TGI [45]: > 100 µM
- TGI [46]: > 100 µM
- TGI [47]: > 100 µM
- TGI [48]: > 100 µM
- TGI [49]: > 100 µM
- TGI [57]: > 100 µM
- TGI [50]: > 100 µM
- TGI [51]: > 100 µM
- TGI [52]: > 100 µM
- TGI [53]: > 100 µM
- TGI [54]: > 100 µM
- TGI [55]: > 100 µM
- TGI [56]: > 100 µM
- TGI [58]: > 100 µM

Structure (SMILES): CC1=NNC(N)=N/C1=C/C(Sc1ccc(Cl)cc1)c1cccs1 (centres undefined)
- TGI [1]: 82.4 µM
- TGI [2]: 37.1 µM
- TGI [3]: 38.8 µM
- TGI [4]: 42.5 µM
- TGI [5]: > 100 µM
- TGI [6]: 53.9 µM
- TGI [7]: 9.79 µM
- TGI [8]: 46.2 µM
- TGI [9]: 68.2 µM
- TGI [10]: 30.3 µM
- TGI [11]: 26.9 µM
- TGI [12]: 29.8 µM
- TGI [13]: 30 µM
- TGI [15]: 28.7 µM
- TGI [59]: > 100 µM
- TGI [16]: > 100 µM
- TGI [17]: 25.4 µM
- TGI [18]: 29 µM
- TGI [19]: 67.9 µM
- TGI [20]: 23.1 µM
- TGI [21]: > 100 µM
- TGI [22]: 28 µM
- TGI [23]: 27.1 µM
- TGI [24]: 20.4 µM
- TGI [26]: 55.3 µM
- TGI [27]: 85 µM
- TGI [28]: > 100 µM
- TGI [29]: 32.6 µM
- TGI [30]: 52 µM
- TGI [31]: 30.5 µM
- TGI [32]: 18.2 µM
- TGI [33]: > 100 µM
- TGI [35]: 76.6 µM
- TGI [36]: 35.2 µM
- TGI [37]: 57.2 µM
- TGI [38]: 27.8 µM
- TGI [39]: 64.3 µM
- TGI [40]: 34.7 µM
- TGI [41]: 30.5 µM
- TGI [42]: 31.3 µM
- TGI [44]: 27.4 µM
- TGI [45]: 39.7 µM
- TGI [46]: 25.6 µM
- TGI [47]: 26.4 µM
- TGI [48]: 99.7 µM
- TGI [49]: 85.7 µM
- TGI [51]: 41.7 µM
- TGI [52]: 62.2 µM
- TGI [53]: > 100 µM
- TGI [54]: > 100 µM
- TGI [55]: 45.5 µM
- TGI [58]: 17.7 µM

Structure (SMILES): COc1cc(C2C(Cl)C(=O)N2c2ccc(Br)cc2)cc(I)c1O (centres undefined)
- TGI [1]: > 100 µM
- TGI [2]: > 100 µM
- TGI [3]: > 100 µM
- TGI [4]: > 100 µM
- TGI [5]: > 100 µM
- TGI [6]: > 100 µM
- TGI [7]: > 100 µM
- TGI [8]: > 100 µM
- TGI [9]: > 100 µM
- TGI [10]: > 100 µM
- TGI [12]: > 100 µM
- TGI [13]: > 100 µM
- TGI [14]: > 100 µM
- TGI [15]: > 100 µM
- TGI [16]: > 100 µM
- TGI [17]: > 100 µM
- TGI [18]: 24.6 µM
- TGI [19]: > 100 µM
- TGI [20]: > 100 µM
- TGI [21]: > 100 µM
- TGI [22]: > 100 µM
- TGI [24]: > 100 µM
- TGI [25]: > 100 µM
- TGI [26]: > 100 µM
- TGI [27]: > 100 µM
- TGI [28]: > 100 µM
- TGI [30]: > 100 µM
- TGI [31]: > 100 µM
- TGI [32]: > 100 µM
- TGI [33]: > 100 µM
- TGI [34]: > 100 µM
- TGI [35]: > 100 µM
- TGI [36]: > 100 µM
- TGI [37]: > 100 µM
- TGI [38]: > 100 µM
- TGI [39]: > 100 µM
- TGI [41]: > 100 µM
- TGI [42]: > 100 µM
- TGI [43]: > 100 µM
- TGI [44]: > 100 µM
- TGI [46]: > 100 µM
- TGI [47]: > 100 µM
- TGI [48]: > 100 µM
- TGI [49]: > 100 µM
- TGI [57]: > 100 µM
- TGI [50]: > 100 µM
- TGI [51]: > 100 µM
- TGI [52]: > 100 µM
- TGI [53]: > 100 µM
- TGI [54]: > 100 µM
- TGI [55]: > 100 µM
- TGI [56]: > 100 µM
- TGI [58]: > 100 µM
